From US20120021432A1, “Phosphorylated NF45 Biomarkers, Antibodies And Methods Of Using Same” (ArQule, Inc., priority 2010, published 2012)

Experiments:
pNF45 (T388) [1] = assay: Effect of ATM and DNA-PK inhibitors on NF45 phosphorylation by β-Lapachone in MIA PaCa-2 cells (Western blot); format: cell-based, human; conditions: then β-Lapachone 4 μM 8 hrs in presence of inhibitor
From the text: (§1) Immunoprecipitation and Western Blot Analysis: Cell lysate was used for immunoprecipitation using anti-NF90 antibody (#612154, BD Biosciences) or IgG as negative control. Samples then were separated into two equal potions: one blotted with anti-pNF45(T388)(#438) and another for anti-NF45 (K-22) (sc-133817, Santa Cruz Biotechnology). Other antibodies used in this study are pATM(S1981)(# 200-301-400, Rockland), DNA-PKcs (MA-370-P0, Thermo Scientific), ATM(2C1) (GTX70103, GeneTex), DNA-PK (S2506) (ab18192, Abcam), DNA-PK (T2609) (ab18356, Abcam), pCHK2(T68) (#2661, CST), b-actin (#5441, Sigma), g-H2AX (A300-081A, Bethyl).
(§2) β-Lapachone-induced phosphorylation of NF45 is ATM- and DNA-PK-dependent: MIA PaCa-2 cells were pretreated with or without ATM inhibitor KU55933 (10 μM), or DNA-PK inhibitor NU7026 (20 μM), for 1 hr and then treated with β-Lapachone (4 μM) (“Agent A”) for 8 hrs in the presence of inhibitors. Western blot analysis was performed using specific antibodies.

pNF45 (T388) [2] = assay: Western blot analysis for pNF45 (T388) in MIA PaCa-2 cells; format: cell-based, human; conditions: for induction of NF45 phosphorylation, pNF45 (T388) / time course of NF45 phosphorylation: MIA Paca-2 cells; for induction of NF45 phosphorylation, pNF45 (T388): various times; for time course of NF45 phosphorylation: up to 24 hrs
From the text: Cell culture and chemicals: MIA PaCa-2 cells were maintained in DMEM medium supplemented with 10% FBS. β-Lapachone and (S)-1′-(3-(4-(tert-butyl)phenoxy)-2-hydroxypropyl)-2H-spiro[naphtho[1,2-b][1,4]oxathiine-3,4′-piperidine]-5,6-dione were synthesized by ArQule, Inc. Doxorubicin, cisplatin, camptohethcin and NU7026 (DNA-PK inhibitor) were purchased from Sigma. KU55933 (ATM inhibitor) was purchased from EMD Chemicals.
Antibody generation: Anti-pNF45 (T388) antibody was generated by Covance (Norwood, Mass.). Briefly, a peptide corresponding to amino acids 383 to 390 (EESME-T-QE) (SEQ ID NO: 2) of NF45 was phosphorylated at threonine 388 in vitro and then conjugated with KHL. Polyclonal antibody was produced from rabbit and passed through affinity column with unphosphorylated peptide and then purified through the column with phosphorylated peptide. Two batches of antibody were obtained: #438 and #439. All the experiments were carried out using #438. Monoclonal antibody are generated by utilizing SEQ ID NO:2 and the hybridoma method known in the art and described herein.
as §1
Knockdown of NF45: Cells were transfected with NF45 On-target plus SMART pool (L-017599-00-0005, Thermo Fisher) or On-Target plus Control siRNA (200 nM, #D-001810-0X, Thermo Fisher) using Oligofectamine (#12252-011, Invitrogen). Cells were used for further examination after 48 hr post transfection.
Threonine Phosphorylation of pNF45 in MIA PaCa-2 Cells is Responsive to β-Lapachone: MIA PaCa-2 cells were treated with or without β-Lapachone (4 μM) (“Agent A”) for 8 hrs and cell lysate was subjected to western blot analysis for the detection of pNF45(T388). […] Samples were then separated into two portions: one for detection of pNF45 (T388) and another for detection of total NF45. C. Cells were transfected with NF45 siRNA or control siRNA and then treated with or without β-Lapachone (4 μM) for 8 hrs.
Time- and concentration-dependent pNF45 (T388) in response to β-Lapachone in MIA PaCa-2 cells: MIA PaCa-2 cells were treated with β-Lapachone (4 μM) (“Agent A”) for various times (A), or for 2 hrs at various concentrations of β-Lapachone (B). Western blot analysis was performed for the detection of pNF45 (T388) and NF45. […] Early induction of pNF45 (T388) was observed within 1 hr and reached peak level between 4 to 8 hrs.
Effect of DNA damage agents on phosphorylation of NF45: To determine whether other DNA damage agents are able to regulate NF45, we treated MIA Paca-2 cells with or without doxorubicin (1 μM), cisplatin (10 μM) or camptothecin (10 μM) for various times. pNF45 (T388) was examined by western blot analysis.

pNF45 (T388) [3] = assay: Immunofluorescence staining of pNF45 (T388) in MIA PaCa-2 cells; format: cell-based, human
Description: Immunofluorescent Staining: Cells were seeded in 8-well chamber slides and treated with or without β-Lapachone for various time periods and then fixed with 4% paraformaldhyde. pNF45 was detected using anti-pNF45(T388) antibody, and NF45 using anti-NF45 (K-22) antibody. Slides were mounted using Vectashield Mounting Medium with DAPI (#H-1200, Vector Laboratories) and images were obtained using Zeiss fluorescence microscope.
Immunofluorescence staining pNF45 (T388) in response to β-Lapachone: MIA PaCa-2 cells were plated in 8-well chamber slides and treated with β-Lapachone (4 μM) (“Agent A”) for various times. Cells were fixed and stained for either pNF45 (A) or NF45 (B).

ATM = assay: Western blot, activation of ATM in β-Lapachone treated cells; format: cell-based, human; conditions: MIA PaCa-2 cells, coincides with induction of pNF45 (T388)
From the text: as §1, §2

DNA-PK = assay: Western blot, activation of DNA-PK in β-Lapachone treated cells; format: cell-based, human; conditions: MIA PaCa-2 cells, coincides with induction of pNF45 (T388)
From the text: as §1, §2

CHK2 = CHK2 phosphorylation in treated cells; format: cell-based
From the text: as §1

g-H2AX = g-H2AX elevation in treated cells; format: cell-based
From the text: as §1

DNA topoisomerase II = conditions: cited from earlier work
[4] = system: human prostate and promyelocytic leukemia cancer cell lines; conditions: cited from earlier work
[5] = system: Human breast and ovary carcinoma; conditions: cited from earlier work
[6] = system: human ovarian cancer, human prostate cancer, human breast cancer, human multiple myeloma; conditions: single agent, xenotransplant mouse models; cited from earlier work
[7] = cited from earlier work
[8] = system: cancer cells from a variety of tissues; normal cells from these tissues; conditions: cited from earlier work

## O=c1cc(N2CCOCC2)oc2c1ccc1ccccc12 [NU7026]
pNF45 (T388) [1]; inhibitor 20 μM pretreated 1 hr
  effect of DNA-PK inhibitor on β-Lapachone-induced phosphorylation of NF45: phosphorylation of NF45 induced by β-Lapachone is ATM and DNA-PK dependent

## N.N.[Cl][Pt][Cl] [cisplatin]
pNF45 (T388) [2]; 10 μM
  induction of NF45 phosphorylation, pNF45 (T388): not cisplatin induced NF45 phosphorylation

## CC[C@@]1(O)C(=O)OCc2c1cc1n(c2=O)Cc2cc3ccccc3nc2-1 [camptothecin]
pNF45 (T388) [2]; 10 μM
  time course of NF45 phosphorylation: steadily increased up to 24 hrs
  induction of NF45 phosphorylation, pNF45 (T388): induced NF45 phosphorylation

## COc1cccc2c1C(=O)c1c(O)c3c(c(O)c1C2=O)C[C@@](O)(C(=O)CO)C[C@@H]3O[C@H]1C[C@H](N)[C@H](O)[C@H](C)O1 [doxorubicin]
pNF45 (T388) [2]; 1 μM
  time course of NF45 phosphorylation: steadily increased up to 24 hrs
  induction of NF45 phosphorylation, pNF45 (T388): induced NF45 phosphorylation

## CC1(C)CCC2=C(O1)c1ccccc1C(=O)C2=O [β-Lapachone, 3,4-dihydro-2,2-dimethyl-2H-naphtho[1,2-b]pyran-5,6-dione]
pNF45 (T388) [2]; MIA PaCa-2 cells, 4 μM
  time of early induction of pNF45 (T388): ≤ 1 hr
pNF45 (T388) [2]; MIA PaCa-2 cells, 4 μM for various times, or 2 hrs at various concentrations
  time and concentration dependence of pNF45 (T388) induction: time- and concentration-dependent manner
pNF45 (T388) [2]; MIA PaCa-2 cells, 4 μM, 8 hrs
  induction of pNF45 (T388): induced pNF45 (T388)
pNF45 (T388) [3]; MIA PaCa-2 cells, 4 μM
  cellular location of induced pNF45 (T388): primarily located in nuclei
pNF45 (T388) [3]; MIA PaCa-2 cells, 4 μM, various times
  time of induction of pNF45 (T388), immunofluorescence: ≤ 2 hrs
pNF45 (T388) [3]; β-Lapachone treated cells, pNF45 (T388) antibody
  pNF45 (T388) levels, immunofluorescence staining: significant increase
ATM
  activation of ATM: activation
DNA-PK
  activation of DNA-PK: activation
CHK2
  CHK2 phosphorylation: CHK2 phosphorylation
g-H2AX
  g-H2AX level: g-H2AX elevation
DNA topoisomerase II
  inhibition of DNA topoisomerase II: inhibits DNA topoisomerase II
[4]
  induction of cell death: induces cell death with characteristics of apoptosis
[5]
  cytotoxic effect: showed sensitivity of the cytotoxic effect of β-Lapachone without signs of apoptosis
[6]
  number of tumors, tumor size, survival time: decrease the number of tumors, reduce tumor size, or increase the survival time, or a combination of these
[7]
  water solubility: non-water soluble
[8]
  cell death in cancer cells versus normal cells: induces cell death in cancer cells from a variety of tissues without causing death of normal cells from these tissues

## O=c1cc(-c2cccc3c2Sc2ccccc2S3)oc(N2CCOCC2)c1 [KU55933]
pNF45 (T388) [1]; inhibitor 10 μM pretreated 1 hr
  effect of ATM inhibitor on β-Lapachone-induced phosphorylation of NF45: phosphorylation of NF45 induced by β-Lapachone is ATM and DNA-PK dependent
